Read-outs that look alike come from different tables or passages of the source.
What was measured:
[1] = test system: CCL-247 colorectal cancer cells; assay: BrdU Cell Proliferation Assay, docetaxel dose response with/without shRNA plasmid electroporation; format: cell-based, human; details: for IC50: Homo sapiens
Protocol: Docetaxel storage stock was made in 10 mM, with DMSO as solvent in a biological safety cabinet for sterility purposes. Docetaxel solution was stored in 4° C. fridge away from direct light. For each experiment, docetaxel storage solution was brought to room temperature to thaw, about 30 min before usage. A 5 uM working solution was made and further diluted 1:50. To 9.8 ml complete CCL-247 media, 0.2 ml 5 uM working solution was added so that 10 ul of the solution into final volume of 100 ul will make 10 nM. The 10 nM solution was serially diluted to make 5 nM, 2.5 nM, 1.25 nM, 0.625 nM, and 0.3124 nM.
The CCL-247 media comprises HyClone McCoy's 5A medium 500 ml, FBS 50 ml, and L-Glutamine 10 ml. Under the biological cabinet, the above solutions were mixed into McCoy's 5A medium 500 ml bottle. The mixture was poured at the top part of filter, a vacuum pump was turned on to filter the mixed medium through. The media was stored at 4° C. after use.
The % growth inhibition is calculated as: […]

SK-Mel-28 melanoma cells = assay: as above; details: Homo sapiens
Protocol: Cells are cultured and grown to sufficient amount for the studies. The shRNA plasmid transfection was performed by electroporation, in the dose of 50 ug/10 million cell. Finally the different ingredients were placed in 96-well plates (media, transfected cells with and without docetaxel, buffer) and incubated at 37° C. with 5% CO2. Growth inhibition was studied using the BrdU Cell Proliferation Assay kit at 24, 48, and 72 hrs.
The cell growth inhibition for each of treatment is calculated from direct OD reading. The % growth inhibition is calculated as:
% growth inhibition of control=ODtreated−ODtreatedNoBrdUcontrol/ODuntreated−ODuntreatedNoBrdUcontrol
wherein, ODtreated: OD reading from the shRNA plasmid and/or docetaxel treated reactant; ODtreatedNoBrdUcontrol: OD reading from the shRNA plasmid and/or docetaxel treated reactant, but without BrdU labeling; ODuntreated: OD reading from reactants without shRNA plasmid or docetaxel treatment; ODuntreatedNoBrdUcontrol: OD reading from reactants without shRNA plasmid or docetaxel treatment, and without BrdU labeling.
The % growth inhibition is calculated and plotted against treatment dose of docetaxel. From the plotted % growth inhibition IC50 is determined from curve for shRNA with/without docetaxel, as well as with docetaxel in different concentrations. IC50—half maximal inhibitory concentration, is a measure of the effectiveness of a compound (docetaxel for this study) in inhibiting biological function (cell growth for this study).

IC50 ([1]; 48 h, CCL-247, + pbi-shRNA^STMN1, 48 h, read-out: Docetaxel IC50 (mean ± SD)): 600 ± 400 pM | IC50 ([1]; 48 h, CCL-247, no ShRNA, 48 h, read-out: Docetaxel IC50 (mean ± SD)): 1800 ± 200 pM | IC50 ([1]; 72 h, CCL-247, + pbi-shRNA^STMN1, 72 h, read-out: Docetaxel IC50 (mean ± SD)): 600 ± 400 pM | IC50 ([1]; 72 h, CCL-247, + scrambled control, 72 h, read-out: Docetaxel IC50 (mean ± SD)): 1000 ± 600 pM | IC50 ([1]; 72 h, CCL-247, no ShRNA, 72 h, read-out: Docetaxel IC50 (mean ± SD)): 1000 ± 400 pM | IC50 ([1]; CCL-247, with STMN1 knockdown (bi-shRNA^STMN1), BrdU, n=3, read-out: IC50 of docetaxel): 600 ± 400 pM | IC50 ([1]; CCL-247, without STMN1 knockdown, BrdU, n=3, read-out: IC50 of docetaxel): 1800 ± 200 pM | IC50 (SK-Mel-28 melanoma cells; SK-MEL-28, 48 h, read-out: Docetaxel IC50 (mean ± SD), SK-Mel-28, + pbi-shRNA^STMN1, 48 h): 100 pM | IC50 (SK-Mel-28 melanoma cells; SK-MEL-28, 48 h, read-out: Docetaxel IC50 (mean ± SD), SK-Mel-28, + scrambled control, 48 h): 1000 ± 200 pM | IC50 (SK-Mel-28 melanoma cells; SK-MEL-28, 48 h, read-out: Docetaxel IC50 (mean ± SD), SK-Mel-28, no ShRNA, 48 h): 1700 ± 2000 pM | IC50 (SK-Mel-28 melanoma cells; SK-MEL-28, 72 h, read-out: Docetaxel IC50 (mean ± SD), SK-Mel-28, + pbi-shRNA^STMN1, 72 h): 200 ± 100 pM | IC50 (SK-Mel-28 melanoma cells; SK-MEL-28, 72 h, read-out: Docetaxel IC50 (mean ± SD), SK-Mel-28, + scrambled control, 72 h): 900 ± 200 pM | IC50 (SK-Mel-28 melanoma cells; SK-MEL-28, 72 h, read-out: Docetaxel IC50 (mean ± SD), SK-Mel-28, no ShRNA, 72 h): 800 ± 200 pM | IC50 (SK-Mel-28 melanoma cells; SK-MEL-28, read-out: IC50 of docetaxel, SK-Mel-28, with STMN1 knockdown (bi-shRNA^STMN1), BrdU, n=3): 100 pM | IC50 (SK-Mel-28 melanoma cells; SK-MEL-28, read-out: IC50 of docetaxel, SK-Mel-28, without STMN1 knockdown, BrdU, n=3): 1700 ± 200 pM
Compound: CC(=O)O[C@@]12CO[C@@H]1C[C@H](O)[C@@]1(C)C(=O)[C@H](O)C3=C(C)[C@@H](OC(=O)[C@H](O)[C@@H](NC(=O)OC(C)(C)C)c4ccccc4)C[C@@](O)([C@@H](OC(=O)c4ccccc4)[C@H]21)C3(C)C [Docetaxel, docetaxel]
cell growth compared to control ([1]; CCL-247, docetaxel alone 1.25 nM, 48 hrs): about 70%

Reference: patent US20110286979A1, “CHEMOSENSITIZATION BY BI-FUNCTIONAL SMALL HAIRPIN RNA (bi-shRNA)” (GRADALIS, INC., priority 2010, published 2011)
